Measured values taken from the supplement of paper PMC8149375.

Columns and labels:
Conditions in all cases: treatment: drug + dasatinib (fixed dose, not stated); 5 days
UO-31 [1] = assay: GI50 of drug in presence of dasatinib; higher = less potent
Description: (§1)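 Primary HTS combination arm: 8 RCC cell lines treated with 8 doses (up to 10 uM) of each library drug plus a fixed dose of dasatinib (dose not stated) for 5 days; viability read by CellTiter-Glo and normalised to DMSO. GI50 was fitted with XLfit, AUC is the area under the dose-response curve, and minimum viability is the lowest fraction of DMSO viability across doses.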

SN12C [2] = assay: as above
Description: as §1

ACHN [3] = assay: as above
Description: as §1

769-P [4] = assay: as above
Description: as §1

TK-10 [5] = assay: as above
Description: as §1

786-O [6] = assay: as above
Description: as §1

CAKI-1 [7] = assay: as above
Description: as §1

A498 [8] = assay: as above
Description: as §1

UO-31 [9] = assay: minimum viability across doses, drug + dasatinib, relative to DMSO (fraction); higher = less growth inhibition
Description: as §1

SN12C [10] = assay: as above
Description: as §1

ACHN [11] = assay: as above
Description: as §1

769-P [12] = assay: as above
Description: as §1

TK-10 [13] = assay: as above
Description: as §1

786-O [14] = assay: as above
Description: as §1

CAKI-1 [15] = assay: as above
Description: as §1

A498 [16] = assay: as above
Description: as §1

UO-31 [17] = assay: AUC of dose-response viability curve, drug + dasatinib, normalised to DMSO (arbitrary (AUC of normalised viability)); higher = less growth inhibition
Description: as §1

SN12C [18] = assay: as above
Description: as §1

ACHN [19] = assay: as above
Description: as §1

769-P [20] = assay: as above
Description: as §1

TK-10 [21] = assay: as above
Description: as §1

786-O [22] = assay: as above
Description: as §1

CAKI-1 [23] = assay: as above
Description: as §1

A498 [24] = assay: as above
Description: as §1

| SMILES | GI50 of drug (ACHN [3]) | GI50 of drug (786-O [6]) | GI50 of drug (UO-31 [1]) | GI50 of drug (SN12C [2]) | GI50 of drug (769-P [4]) | GI50 of drug (TK-10 [5]) | GI50 of drug (CAKI-1 [7]) | GI50 of drug (A498 [8]) | minimum viability across doses (UO-31 [9]) | minimum viability across doses (SN12C [10]) | minimum viability across doses (ACHN [11]) | minimum viability across doses (769-P [12]) | minimum viability across doses (TK-10 [13]) | minimum viability across doses (786-O [14]) | minimum viability across doses (CAKI-1 [15]) | minimum viability across doses (A498 [16]) | AUC of dose-response viability curve (UO-31 [17]) | AUC of dose-response viability curve (SN12C [18]) | AUC of dose-response viability curve (ACHN [19]) | AUC of dose-response viability curve (769-P [20]) | AUC of dose-response viability curve (TK-10 [21]) | AUC of dose-response viability curve (786-O [22]) | AUC of dose-response viability curve (CAKI-1 [23]) | AUC of dose-response viability curve (A498 [24]) |
| --- | --- | --- | --- | --- | --- | --- | --- | --- | --- | --- | --- | --- | --- | --- | --- | --- | --- | --- | --- | --- | --- | --- | --- | --- |
| O=C(O)[C@]1(Cc2cccc(Nc3nccs3)n2)CC[C@@H](Oc2cccc(Cl)c2F)CC1 [MK-5108 (VX-689)] + Cc1nc(Nc2ncc(C(=O)Nc3c(C)cccc3Cl)s2)cc(N2CCN(CCO)CC2)n1 [dasatinib] | 0.0401 µM | 0.105 µM | 4.08 µM | 0.944 µM | 1.36 µM | 1.48 µM | 0.355 µM | 1.99 µM | 0.37 | 0.174 | 0.227 | 0.202 | 0.372 | 0.00534 | 0.216 | 0.339 | 3.91 | 1.96 | 1.51 | 2.18 | 2.14 | 1.07 | 1.86 | 2.89 |
| O=C(O)c1ccc(Nc2ncc3c(n2)-c2ccc(Cl)cc2C(c2c(F)cccc2F)=NC3)cc1 [MLN8054] + Cc1nc(Nc2ncc(C(=O)Nc3c(C)cccc3Cl)s2)cc(N2CCN(CCO)CC2)n1 [dasatinib] | 0.398 µM | 0.641 µM | > 10 µM | 3.92 µM | 1.19 µM | > 10 µM | 0.641 µM | 4.23 µM | 0.645 | 0.425 | 0.219 | 0.306 | 0.585 | 0.157 | 0.277 | 0.354 | 2.92 | 2.22 | 1.77 | 2.14 | 2.58 | 2.01 | 1.93 | 2.68 |
| CC1(C)CNc2cc(NC(=O)c3cccnc3NCc3ccncc3)ccc21.O=P(O)(O)O.O=P(O)(O)O [Motesanib Diphosphate] + Cc1nc(Nc2ncc(C(=O)Nc3c(C)cccc3Cl)s2)cc(N2CCN(CCO)CC2)n1 [dasatinib] | > 10 µM | > 10 µM | > 10 µM | > 10 µM | > 10 µM | > 10 µM | > 10 µM | > 10 µM | 0.944 | 0.711 | 0.512 | 0.599 | 0.724 | 0.714 | 0.542 | 0.877 | 3.93 | 2.56 | 2.3 | 2.34 | 2.87 | 2.74 | 2.39 | 3.26 |
| FC(F)(F)c1ccc(/C=C/c2nc(COc3ccc(CCCCn4ccnn4)cc3)co2)cc1 [Mubritinib (TAK 165)] + Cc1nc(Nc2ncc(C(=O)Nc3c(C)cccc3Cl)s2)cc(N2CCN(CCO)CC2)n1 [dasatinib] | 0.0314 µM | 0.0238 µM | 0.0747 µM | 0.0416 µM | > 10 µM | 0.146 µM | > 10 µM | 0.243 µM | 0.124 | 0.0505 | 0.183 | 0.539 | 0.168 | 0.0257 | 0.543 | 0.231 | 1.66 | 1.09 | 1.26 | 2.32 | 1.56 | 0.96 | 2.17 | 1.99 |
| COc1ccc(-c2ccc3ncc4c(c3c2)n(-c2ccc(N3CCNCC3)c(C(F)(F)F)c2)c(=O)n4C)cn1.O=C(O)/C=C\C(=O)O [NVP-BGT226] + Cc1nc(Nc2ncc(C(=O)Nc3c(C)cccc3Cl)s2)cc(N2CCN(CCO)CC2)n1 [dasatinib] | 0.00438 µM | 0.0053 µM | 0.0142 µM | 0.00606 µM | 0.0159 µM | 0.0122 µM | 0.0101 µM | 0.02 µM | 0.0107 | 0.00253 | 0.00153 | 0.00834 | 0.00345 | 0.00462 | 0.00249 | 0.0127 | 0.779 | 0.601 | 0.453 | 0.87 | 0.725 | 0.402 | 0.631 | 0.972 |
| CNC(=O)c1ccccc1Nc1nc(Nc2ccc(N3CCOCC3)cc2OC)ncc1Cl [NVP-TAE226] + Cc1nc(Nc2ncc(C(=O)Nc3c(C)cccc3Cl)s2)cc(N2CCN(CCO)CC2)n1 [dasatinib] | 0.0274 µM | 0.0267 µM | 0.334 µM | 0.335 µM | 0.75 µM | 0.202 µM | 0.107 µM | 5.88 µM | 0.00626 | 0.132 | 0.0673 | 0.085 | 0.0355 | 0.00641 | 0.0135 | 0.201 | 2.35 | 1.91 | 1.19 | 1.98 | 1.64 | 1.1 | 1.34 | 3.26 |

The next lines start with results.

| GI50 of drug (ACHN [3]) | GI50 of drug (786-O [6]) | SMILES | GI50 of drug (UO-31 [1]) | GI50 of drug (SN12C [2]) | GI50 of drug (769-P [4]) | GI50 of drug (TK-10 [5]) | GI50 of drug (CAKI-1 [7]) | GI50 of drug (A498 [8]) | minimum viability across doses (UO-31 [9]) | minimum viability across doses (SN12C [10]) | minimum viability across doses (ACHN [11]) | minimum viability across doses (769-P [12]) | minimum viability across doses (TK-10 [13]) | minimum viability across doses (786-O [14]) | minimum viability across doses (CAKI-1 [15]) | minimum viability across doses (A498 [16]) | AUC of dose-response viability curve (UO-31 [17]) | AUC of dose-response viability curve (SN12C [18]) | AUC of dose-response viability curve (ACHN [19]) | AUC of dose-response viability curve (769-P [20]) | AUC of dose-response viability curve (TK-10 [21]) | AUC of dose-response viability curve (786-O [22]) | AUC of dose-response viability curve (CAKI-1 [23]) | AUC of dose-response viability curve (A498 [24]) |
| --- | --- | --- | --- | --- | --- | --- | --- | --- | --- | --- | --- | --- | --- | --- | --- | --- | --- | --- | --- | --- | --- | --- | --- | --- |
| 2.83 µM | > 10 µM | Cn1cnc(-c2cc3nccc(Oc4ccc(NC(=S)NC(=O)Cc5ccccc5)cc4F)c3s2)c1 [MGCD-265] + Cc1nc(Nc2ncc(C(=O)Nc3c(C)cccc3Cl)s2)cc(N2CCN(CCO)CC2)n1 [dasatinib] | 5.72 µM | > 10 µM | > 10 µM | > 10 µM | 3.63 µM | > 10 µM | 0.107 | 0.515 | 0.44 | 0.557 | 0.727 | 0.646 | 0.256 | 0.676 | 3.44 | 2.38 | 2.13 | 2.39 | 2.82 | 2.64 | 2.21 | 3.49 |
| 0.0109 µM | > 10 µM | CN(C[C@@H]1COCCO1)S(=O)(=O)Nc1ccc2ccc3ncc(-c4cnn(C)c4)cc3c(=O)c2c1 [MK-2461] + Cc1nc(Nc2ncc(C(=O)Nc3c(C)cccc3Cl)s2)cc(N2CCN(CCO)CC2)n1 [dasatinib] | 5.33 µM | > 10 µM | 6.28 µM | 2.91 µM | 0.45 µM | > 10 µM | 0.227 | 0.179 | 0.121 | 0.362 | 0.287 | 0.638 | 0.0412 | 0.919 | 5.47 | 2.14 | 1.23 | 2.49 | 2.19 | 4.08 | 1.71 | 4.48 |
| 0.46 µM | 4.05 µM | Cc1ccc(NC(=O)c2ccc(CN3CCN(C)CC3)cc2)cc1Nc1nc(-c2cccnc2)cs1 [Masitinib (AB1010)] + Cc1nc(Nc2ncc(C(=O)Nc3c(C)cccc3Cl)s2)cc(N2CCN(CCO)CC2)n1 [dasatinib] | 6.09 µM | > 10 µM | 4.7 µM | > 10 µM | 6.75 µM | > 10 µM | 0.271 | 0.484 | 0.263 | 0.377 | 0.57 | 0.204 | 0.438 | 0.622 | 3.05 | 2.51 | 1.96 | 2.3 | 2.71 | 2.55 | 2.28 | 3.05 |
| 0.129 µM | 3.28 µM | Nc1ncnc2c1c(-c1cccc(OCc3ccccc3)c1)cn2[C@H]1C[C@H](CN2CCCC2)C1 [NVP-ADW742] + Cc1nc(Nc2ncc(C(=O)Nc3c(C)cccc3Cl)s2)cc(N2CCN(CCO)CC2)n1 [dasatinib] | 2.49 µM | > 10 µM | 5.14 µM | 3.39 µM | 1.29 µM | 8.96 µM | 0.0171 | 0.48 | 0.147 | 0.278 | 0.124 | 0.172 | 0.0883 | 0.296 | 2.57 | 2.44 | 1.77 | 2.45 | 2.44 | 2.33 | 2 | 3.18 |
| 0.511 µM | 0.491 µM | Cc1ccc(C(=O)Nc2cccc(C(F)(F)F)c2)cc1Nc1nc(-c2cccnc2)nc2c1cnn2C [NVP-BHG712] + Cc1nc(Nc2ncc(C(=O)Nc3c(C)cccc3Cl)s2)cc(N2CCN(CCO)CC2)n1 [dasatinib] | 3.11 µM | 6.86 µM | 1.64 µM | 1.07 µM | 0.506 µM | 4.42 µM | 0.00794 | 0.0536 | 0.126 | 0.0398 | 0.0343 | 0.00229 | 0.026 | 0.0233 | 3.61 | 2.37 | 1.8 | 2.16 | 2.1 | 1.66 | 1.87 | 3.17 |
| 0.38 µM | 0.0441 µM | Cl.Cl.Fc1cc(-c2cccc3ncc(-c4cnn(C5CCNCC5)c4)nc23)cc(F)c1CN1CCOCC1 [NVP-BSK805] + Cc1nc(Nc2ncc(C(=O)Nc3c(C)cccc3Cl)s2)cc(N2CCN(CCO)CC2)n1 [dasatinib] | 2.94 µM | 2.43 µM | 3.94 µM | 1.42 µM | 0.962 µM | 5.13 µM | 0.0214 | 0.127 | 0.0139 | 0.37 | 0.108 | 0.00448 | 0.0163 | 0.0371 | 3.35 | 2.15 | 1.64 | 2.29 | 2.08 | 1.85 | 1.9 | 3.09 |
| 0.0154 µM | 0.361 µM | Cn1cc(-c2ccc3ncc(Cc4ccc5ncccc5c4)n3n2)cn1 [NVP-BVU972] + Cc1nc(Nc2ncc(C(=O)Nc3c(C)cccc3Cl)s2)cc(N2CCN(CCO)CC2)n1 [dasatinib] | 2.04 µM | 1.9 µM | 1.15 µM | 0.836 µM | 0.303 µM | 1.44 µM | 0.0147 | 0.0116 | 0.0103 | 0.0263 | 0.119 | 0.00818 | 0.0417 | 0.0158 | 3.81 | 2.12 | 1.28 | 2.06 | 2.03 | 1.79 | 1.71 | 3.44 |
